Entries after “also recorded” stand apart in the source; their conditions may differ.
Tests used:
KSHV-infected DMVEC [1] = details: cited from earlier work
KSHV-infected DMVEC [2] = details: cited from earlier work; remark: listed apart in the source
KSHV-infected DMVEC [3] = test: Inhibition of KSHV-induced spindle cell formation by PMO antisense gene silencing; format: cell-based, human; details: for effect on KSHV-induced spindle cell formation / phenotypic inhibition (in words): PMO antisense silencing; for Extent of PMO-induced Inhibition of Spindle Cell Formation / Phenotype Inhibition (inhibition of spindle cell formation): gene-specific PMO antisense
Excerpt: Antisense Gene Silencing using PMOs. […] Silencing of such genes precluded progression into the transformed phenotype when silencing occurred prior to transformation, or induced reversion to the normal state when silencing occurred after induction of the transformed state (see TABLE 2 below).
(§1) Introduction of antisense PMO into KSHV-infected DMVEC. Antisense PMO molecules, for delivery purposes, are typically converted to a paired duplex together with a partially complementary cDNA oligonucleotide in the weakly basic delivery reagent ethoxylated polyethylenimine (EPEI) (Summerton, supra). The anionic complex binds to the cell surface, is taken up by endocytosis and eventually released into the cytosol. A protocol for optimum uptake of antisense PMO in immortalized DMVEC was developed using a modification of the EPEI method. Briefly, uninfected, immortalized DMVECs were incubated for 3 hours at 37° C. with 0.6 nmol/well FITC-PMO complexed with EPEI according to the manufacturer's instructions (Genetools, LLC, One Summerton Way, Philomath, OR 97370) (e.g., 1.25 n Mol oligomer with 2.5 μl EPEI reagent per 35 mm dish, allowing for sufficient antisense uptake without non-specific EPEI-induced toxicity). The PMOs were labeled with FITC to allow for monitoring of loading efficiency by fluorescence microscopy.
(§2) Specifically, DMVEC were infected with KSHV, plated in 35 mm dishes and allowed to grow to about 90% confluence. For treatment, KSHV-infected cells were treated with the anti-c-Kit PMO-antisense oligomer-EPEI delivery reagent complex and incubated for 3 hours at 37° C. in serum-free medium to allow for oligomer uptake. A titration experiment testing a range of different oligomer/EPEI volumes was used to determine that loading 1.25 nmol oligomer with 2.5 μl EPEI reagent per 35 mm dish allowed efficient antisense uptake without non-specific EPEI-induced toxicity. Control (mock-treated) DMVEC cultures were loaded with EPEI reagent and sterile water or sterile water alone. Upon removal of the oligomer-EPEI solution, cell monolayers were rinsed in serum-free medium fed with complete medium and examined daily for one week by phase microscopy for evidence of phenotypic change.

KSHV-infected DMVEC [4] = test: XTT proliferation assay after PMO loading; format: cell-based, human; details: PMO antisense silencing
Method: Proliferation assays, and loading of cells with PMOs. Proliferation of KSHV-infected DMVEC was quantified using an XTT (2,3-bis-(2-methoxy-4-nitro-5-sulfophenyl)-2H-tetrazolium-5-carboxanilide, disodium salt)-based assay. KSHV-infected cells were added to Primaria 96-well trays (Becton Dickinson) at 1×10^4 or 5×10^4 cells/well. XTT (Roche, Molecular Biochemicals, Indianapolis, Ind.) was added 48 hours later according to the manufacturer's instructions. Absorbance was read after 4 to 6 hours on a microplate reader.
Briefly, cells were plated in 96-well trays at a density approaching confluence (5×10^4 cells per well) in 100 μl of complete medium. PMOs were loaded the following day in a total of 100 μl (0.5 μl PMO, 0.5 μl EPEI, 49 μl H2O and 50 μl serum free medium) with reagent mixing as described by the manufacturer (GeneTools). Controls included a FITC PMO control oligonucleotide, EPEI only or H2O only. Each variable was performed in quadruplicate. Fresh complete medium was replaced 4 hours after loading. Cells were cultured for 4 days to allow for multi-layered cell growth post-confluence in the absence of any growth inhibition. XTT was added on day 4 of culture and the a bsorbance read 4 hrs later on a microplate reader. Cell proliferation (growth) values are given as percentage inhibition values, relative to cells without PMO, which are adjusted to 100%.

KSHV-infected DMVEC [5] = test: Focus formation / contact inhibition by phase microscopy after c-Kit PMO loading; format: cell-based, human; details: 1.25 nmol PMO and 2.5 μl EPEI per 35 mm dish, one week post-loading
Method: Proof of principal for target validation; silencing of c-Kit gene expression.
as §2

immortalized DMVEC = test: Uptake and persistence of FITC-labeled PMO by fluorescence microscopy; format: cell-based, human; details: FITC-labeled PMO with EPEI, at 3 hours
Excerpt: as §1
Cellular distribution of introduced FITC-labeled POM antisense molecules. […] Specifically, the c Kit antisense PMO molecules were initially concentrated in intracellular vesicles (endosomes) at 3 hours in about 70% of the cells, and distributed within the cytoplasm at 66 hours.

KSHV-infected DMVEC [6] = test: Inhibition of KSHV-induced spindle cell formation by PMO antisense gene silencing; format: cell-based, human

Compound | effect on KSHV-induced spindle cell formation / phenotypic inhibition (in words) (KSHV-infected DMVEC [3]) | Extent of PMO-induced Inhibition of Spindle Cell Formation (KSHV-infected DMVEC [3]) | Phenotype Inhibition (inhibition of spindle cell formation) (KSHV-infected DMVEC [3]) | inhibition of KSHV-induced cellular proliferation (in words) (KSHV-infected DMVEC [4]) | also measured
Cc1ccc(NC(=O)c2ccc(CN3CCN(C)CC3)cc2)cc1Nc1nccc(-c2cccnc2)n1 [STI 571] |  |  |  |  | nonspecific cytotoxicity (cell viability controls) (KSHV-infected DMVEC [1]): not due to nonspecific cytotoxicity; proliferative response of KSHV-infected DMVEC to exogenous SCF (KSHV-infected DMVEC [1]; exogenous SCF): inhibited; phenotype after removal of the compound (KSHV-infected DMVEC [2]; removal of STI 571, even after exposure to a 10 μM dose): regeneration of the transformed phenotype; focus formation (KSHV-infected DMVEC [2]; treatment to inhibit endogenous c-Kit tyrosine kinase activity): focus formation is inhibited
AGCATGTCACGCACAGTGGCCTCAT (all phosphorodiamidate morpholino (PMO)) [ANGPTL2] | intermediate inhibitory effects | intermediate | Intermediate |  | 
AGCTCGTGCTCTGCACACTCTGCAT (all phosphorodiamidate morpholino (PMO)) [NOV] | fully reversed spindle cell formation | full | Full |  | 
AGCTTCATGTTGGAGGTGTTCG (all phosphorodiamidate morpholino (PMO)) [IFACTOR] | little or no affect on KSHV-induced spindle cell formation | none | None | relatively little or no significant inhibition | 
CGCCTCTCATCGCGGTAGCTGCG (all phosphorodiamidate morpholino (PMO); further chemistry not fully specified) [KIT] | fully reversed spindle cell formation | full | Full | substantial inhibition of KSHV-induced cellular proliferation | foci formation / contact-inhibited growth (KSHV-infected DMVEC [5]; listed as c-Kit antisense PMO oligomer): did not develop foci; also recorded: did not progress to spindle cell and foci formation; foci formation / contact-inhibited growth (KSHV-infected DMVEC [5]; listed as c-Kit-specific antisense PMO oligonucleotides): did not develop foci; cells with PMO concentrated in intracellular vesicles (uptake) (immortalized DMVEC): about 70%
GAAGAGATGCAGATCCATCGTTCTG (all phosphorodiamidate morpholino (PMO)) [RDC-1] | fully reversed spindle cell formation | full | Full | substantial inhibition of KSHV-induced cellular proliferation | effect on KSHV-induced spindle cell formation / phenotypic inhibition (in words) (KSHV-infected DMVEC [6]; listed as RDC-1-specific PMO): full phenotypic inhibition
GCCGAGGACATTGGGGAGGGAGGCG (all phosphorodiamidate morpholino (PMO)) [LMO2] | little or no affect on KSHV-induced spindle cell formation | none |  |  | 
GGAGCACGGTCCAGGCGAAGCGCAT (all phosphorodiamidate morpholino (PMO)) [LOX] | fully reversed spindle cell formation | full | Full |  | 
GGCAGCCCACTCTCTCGGCAGCATG (all phosphorodiamidate morpholino (PMO)) [IGFBP2] | fully reversed spindle cell formation | full | Full | substantial inhibition of KSHV-induced cellular proliferation | 
GGCTCCATCTTGGGCTCTGGGCTCC [FLJ14103] | fully reversed spindle cell formation | full |  |  | 
GGGTCTCCTCGGATCAGGCGCG (all phosphorodiamidate morpholino (PMO)) [INSR] | intermediate inhibitory effects | intermediate | Intermediate | substantial inhibition of KSHV-induced cellular proliferation | 
GTCAGTTTACTCATGTCATCTATTG (all phosphorodiamidate morpholino (PMO)) [KIAA0367] | intermediate inhibitory effects | intermediate | Intermediate | substantial inhibition of KSHV-induced cellular proliferation | effect on KSHV-induced spindle cell formation / phenotypic inhibition (in words) (KSHV-infected DMVEC [6]; listed as KIAA0367-specific PMO): intermediate phenotypic inhibition
Osteopontin |  |  | None | relatively little or no significant inhibition | 
TGAATAAGCAACAATGTAGCTTCAT (all phosphorodiamidate morpholino (PMO)) [MFAP3] | little or no affect on KSHV-induced spindle cell formation | none | None | relatively little or no significant inhibition | effect on KSHV-induced spindle cell formation / phenotypic inhibition (in words) (KSHV-infected DMVEC [6]; listed as MFAP-specific PMO): no phenotypic inhibition
TTAACTCCCATCCTACGTTTAGTCA (all phosphorodiamidate morpholino (PMO)) [Neuritin] | fully reversed spindle cell formation | full | Full | substantial inhibition of KSHV-induced cellular proliferation | 
